Bounds are passed on as bounds.

Regarding `O=C(C=Cc1ccc(Oc2ccccc2)cc1)c1ccc(F)cc1`, the melting point (usually the temperature of the solid-liquid transition) is 116 °C.

`CC1(N2Cc3cc(CNC(=O)c4ccc(Cl)c(Cl)c4)ccc3C2=O)CCC(=O)NC1=O` (stereo unspecified) had a melting point of 220 to 222 °C.

Consider `Cc1cc(S(=O)(=O)NC2CCCCC2)c2c(C)ccc(C(C)C)cc1-2`, for which the melting point is 108 to 109 °C.

Turning to `CCCN(CC(=O)NC12CC3CC(CC(C3)C1)C2)C(=O)NCCCc1ccncc1`, the melting point was found to be 132 °C.

For the compound `O=Nc1c(-c2ccccc2)nc2ncccn12`, the melting point lay within 223 to 225 °C.

Consider `COc1ccc(Cl)cc1NC(=O)[C@H]1[C@H](c2ccc(Br)cc2)C1(C)C` (relative stereo), for which the melting point was in the range of 170 to 172 °C.

In turn, `CC(=O)N1CCN(c2ccc(NS(C)(=O)=O)c(C)c2)CC1` returned a melting point of 153 to 154 °C.

`COc1ccc(C#Cc2ccncc2)c2c1OC1(CCCC1)C2` showed a melting point of 128 to 131 °C.

`CN1N=C(c2ccc(Cl)cc2)CC1=O` returned a melting point of 189 °C.

Consider `OCC1OC(n2cnc3c(NCCc4cn(Cc5ccc(Cl)cc5)c5ccccc45)ncnc32)C(O)C1O` (stereo unspecified), for which the melting point was 181 °C.

Regarding `CCOCCn1c(C)c(C2(c3ccc(N(C)C)cc3C)OC(=O)c3ccccc32)c2ccccc21` (stereo unspecified), the melting point is 170 to 171 °C.

The compound `Cc1c(C(=O)Nc2ccc(N3CCN(C4CCOCC4)CC3)c(C#N)c2)cnn1-c1ccccc1` showed a melting point of 227 °C.

`Cc1cccc(C(=O)Nc2c[nH]nc2C(=O)NCCOC(C)C)n1` registered a melting point of 150 to 151 °C.

In the case of `O=C(O)c1cc(=O)c(OCc2ccccc2)c(-c2ccccc2)o1`, the melting point lay within 161 to 170 °C.

Compound `CCc1c(C)nc2c(C)cccn2c1=O` registered a melting point of 90 to 92 °C.

With `CCC1(CC)c2cc(-c3ccc4c(c3)C(CC)(CC)c3cc(N(c5ccccc5)c5ccccc5)ccc3-4)ccc2-c2ccc(-c3nc4ccccc4s3)cc21`, the melting point is 217 to 218 °C.

`COc1ccc(C(=O)N2CCc3cc(OCc4ccccc4)ccc3C2)cc1OC`: the melting point was 126 to 127 °C.

As to `NNCc1ccccc1S(=O)(=O)O`, the melting point fell in the range of 257 to 262 °C.

`CCC(=O)N1C(=O)C(=O)c2cc(Cl)ccc21` displayed a melting point of 160 to 162 °C.

For the compound `O=C(CCCOCCc1ccc2ccccc2c1)c1ccc(F)cc1`, the melting point lay within 68 to 70 °C.

With `O=C(NC1CCc2cc3c(cc2C1)OCC3)C(F)(F)F` (stereo unspecified), the melting point was determined as 131 °C.

`C#CCCCCCCCCCCOc1cccc(C(N)=O)c1` yielded a melting point of 106 to 108 °C.

Consider `CCCc1c(OCCCCCc2c(O)c(O)c(Cl)c(Cl)c2Cl)ccc(C(=O)O)c1O`, for which the melting point lay within 193 to 196 °C.

Consider `Cc1c(Cl)cccc1S(=O)(=O)Nc1ccc2sccc2c1`, for which the melting point lay in the range of 108 to 109 °C.

Turning to `CCCCOc1cc(CO)cc(N)c1Cc1ccccc1`, the melting point was 105 to 107 °C.

Consider `CSc1sc(-c2ccccn2)c2c1-c1oncc1C(C)(C)C2`, for which the melting point is 153 to 155 °C.

As for `COc1ccc(-c2ccc(-c3ccc(OC)cc3)c(-c3ccc(O)cc3)n2)cc1`, the melting point fell in the range of 204 to 205 °C.

On to `CCCCCCCCCCCCCCOC(=O)CS(=O)(=O)Nc1c(C(C)C)cccc1C(C)C`, for which the melting point lay within 53 to 55 °C.

Compound `CCN(CC1CCCC1)c1nc2c(cc1CN(Cc1cc(C(F)(F)F)cc(C(F)(F)F)c1)c1nnn(C)n1)c(C)nn2C` returned a melting point of 84 to 86 °C.

`CCCCCCCCCCCCCCSc1ccc(Cl)c(N)c1` yielded a melting point of 60.5 to 61.5 °C.

Take `OC(c1ccc(OC(F)(F)F)cc1)(c1ccc(OC(F)(F)F)cc1)C1CCN(Cc2c[nH]c3cccc(F)c23)CC1`: the melting point lay within 76 to 88 °C.

As for `O=C(Cc1cccc(Cl)c1)c1ccn(S(=O)(=O)c2ccccc2)c1`, the melting point lay in the range of 106 to 108 °C.

`CCC1CCC(NC(=O)NS(=O)(=O)c2ccc(CCNC(=O)N3CCC(C)CC3=O)cc2)CC1` (stereo unspecified) gave a melting point of 178 to 180 °C.

The compound `CC(=O)OC1CC2=CC(=O)C3C4CCCC4(C)CCC3C2(C)C(OC(C)=O)C1` (stereo unspecified) had a melting point of 220 to 221 °C.

Compound `Cc1cccc(-c2nc(NC(=O)c3ccc(C(=O)O)cc3)sc2-c2ccncn2)c1` came in with a melting point of 380 to 381 °C.

Compound `COc1cc(-c2nc(-c3ccc(N(C)C)cc3)c(C)[nH]2)cc(OC)c1OP(=O)(O)O` showed a melting point of 196 to 198 °C.

`CCOCc1cc2cc(Br)ccc2oc1=O` showed a melting point of 118 to 119 °C.

As to `C#CCCCCCCCCC(c1ccc(Cl)cc1)C1(S(=O)(=O)c2ccc(OC)cc2)SC(=O)NC1=O` (stereo unspecified), the melting point is 114 to 121 °C.

The compound `CCCCCNC(=O)C(C)Cc1ccc2c(c1)c(Cc1ccc(C(=O)NS(=O)(=O)c3ccccc3C)cc1OC)cn2C` (stereo unspecified) returned a melting point of 110 to 113 °C.

`CCCCCCCNC(=O)Nc1ccc(N2CCCC2)cc1C(=O)NCC1CCN(C(c2ccccc2)c2ccccc2)CC1` came in with a melting point of 182 to 184 °C.

For `CCCCCCCCCCCCc1csc(-c2c(Cl)c(Cl)c(-c3cc(CCCCCCCCCCCC)cs3)c3nsnc23)c1`, the melting point was in the range of 79 to 80 °C.

The compound `CSC(C(=O)N(C)C)c1cccc(C(=O)c2ccccc2)c1N` (stereo unspecified) returned a melting point of 153 to 155 °C.

`C(=Cc1cncn1Cc1ccccc1)CC(c1ccccc1)c1ccccc1` showed a melting point of 204 to 206 °C.

Compound `Nc1cccc(CCc2n[nH]c3c2c(=O)n(-c2ccccc2)c2ncccc32)c1` registered a melting point of 229 to 231 °C.

`COC(=O)c1ccc(O)c(N)c1C(=O)OC` registered a melting point of 112 to 113 °C.

On to `CCCCCCCC=C1SC(=S)N(N=c2sc3ccccc3s2)C1=O`, for which the melting point was found to be 185 °C.

In turn, `O=S=Nc1ccc(C(=O)Cl)cc1` had a melting point of 31 °C.

`CCOC(=O)c1cnc(O)nc1Cc1ccccc1`: the melting point lay in the range of 57 to 61 °C.

With `OC(c1cccc(C(F)(F)F)c1)C1CCN(CCc2ccccc2)CC1` (stereo unspecified), the melting point lay in the range of 143 to 147 °C.

The compound `Cn1nnnc1SCCl` came in with a melting point of 55 to 57 °C.

The compound `Cc1cnc2c(c1)C(=O)c1nccc(Br)c1C2=O` gave a melting point above 200 °C.

Compound `COC(=O)C(Oc1ccc(C(C)(C)C)cc1)c1ccc(Oc2ccc(Cl)cc2)cc1` (stereo unspecified) returned a melting point of 118 to 120 °C.

With `CC(C)Oc1ccc(C(=O)O)c(Cl)n1`, the melting point lay in the range of 173 to 174 °C.

`CC(Cc1cccc(Cl)c1)(NC=O)c1ccccc1` (stereo unspecified) displayed a melting point of 108 to 109 °C.

Take `COc1ccc2sc(C(N)=O)c(Cl)c2c1`: the melting point was in the range of 220 to 222 °C.

Regarding `Cn1c(COc2ccc(CC3SC(=O)NC3=O)cc2)nc2ccc(Oc3ccc(NC(=O)c4ccc5ccccc5c4)cc3)cc21` (stereo unspecified), the melting point was 221 to 223 °C.

In the case of `Cc1cccc(NC(=O)c2ccc(C(=O)N3Cc4cccn4Cc4ccccc43)cc2)c1C`, the melting point fell in the range of 239 to 240 °C.

The compound `Cc1nc(-n2ccc(N)cc2=O)sc1C(=O)NCc1ccccc1` registered a melting point of 171 to 172 °C.

In turn, `N#Cc1ccc(F)cc1-c1ccc(OCc2ccccc2)cc1` registered a melting point of 94 to 96 °C.

The compound `c1ccc(COCCCCOCc2ccccc2)cc1` gave a melting point of 18 °C.

With `c1ccc(-c2nc3cc(-c4nc(COc5ccc(CCCn6ccnc6)cc5)co4)ccc3o2)cc1`, the melting point is 166 to 167 °C.

The record behind these values is a melting point compilation (Tetko et al.; mined from patent text by program, amines drawn as free bases though some values may be those of a salt).
